Test results from US20240190878A1, “ANTIVIRAL PRODRUGS OF ETV AND FORMULATIONS THEREOF” (THE SCRIPPS RESEARCH INSTITUTE, priority 2022, published 2024).
Like-named read-outs stand apart in the source and are kept apart here.

Experiments:
[1] = Single dose dog PK, intramuscular and subcutaneous, monitored 56 days (Example 41); assay type: in vivo, Male Beagle dog; settings: dose-normalized
Procedure: (§1) Animals. Animals (Male SD rats ˜200-250 g and Male Beagle dog ˜12-15 kg) were obtained from an approved vendor.
(§2) Animals were […] at least 12 hours prior to the administration. All animals had access to Certified Rodent and non-Rodent Diet ad libitum 4 hours post dosing.
(§3) Dose Formulation. The formulations were prepared on the day of dosing. Animals were dosed within four hours after the formulation is prepared. Two 20 μL aliquots of each formulation were removed from each of the formulation solutions, transferred into 1.5 mL of polypropylene microcentrifuge tubes and run dose validation by LC/UV or LC-MS/MS.
(§4) Dose Administration. For SC/IM dosing, the dose formulation was administered via subcutaneous/intramuscular injection respectively following facility SOPs.
(§5) Sample Collection. Approximately 200 μL blood was collected from saphenous vein at each time point for rats and 0.5 mL for rhesus macaques. All blood samples were transferred into microcentrifuge tubes containing 4 μL of K2EDTA (0.5M) as anti-coagulant and placed on wet ice until processed for plasma.
(§6) Blood/Plasma processing. Blood: Blood samples were processed for plasma by centrifugation at approximately 4° C., 3000 g 15 min within half an hour of collection. Plasma samples was stored in polypropylene tubes, quick frozen over dry ice and kept at −70±10° C. until LC/MS/MS analysis.
(§7) • LC-MS/MS methods for the quantitative determination of test compound in corresponded biological matrix was developed under non-GLP compliance. • A calibration curve with 8 non-zero calibration standards was applied for the method including LLOQ. • A set of QC samples consisting of low, middle, and high concentration was applied for the method. • The study sample analysis will be performed concurrently with a set of calibration standards and two sets of QC samples using the LC-MS/MS method (If sample numbers were more than 48, then two calibration curves with 2 sets of QC samples were applied). • Acceptance criteria: • Linearity: a minimum of 6 calibration standards was back calculated to within ±20% of their nominal values in plasma. • Accuracy: A minimum of 4 out of 6 QC samples was back calculated to within ±20% of their nominal values in plasma. • Specificity: The mean calculated concentration in the single blank matrix should be 0.5 times the LLOQ. • Sensitivity: the LLOQ will be tried to target 1˜3 ng/mL. • Carryover: the mean calculated carry-over concentration in the single blank matrix immediately after the highest standard injection should be LLOQ. If the carryover couldn't meet the criteria, then the percent of carryover should be estimated following in-house bioanalytical SOP.
(§8) Data Analysis. Plasma concentration versus time data was analyzed by non-compartmental approaches using the Phoenix WinNonlin 6.3 software program.
The aqueous suspension formulations were derived from 0.5% CMC-Na and 0.5% Tween 80. […] Micronized ETV-palmitate (D50=3.0 um; D90=10.5 um) and prodrug 36 (D50=7.0 um; D90=16.6 um) and non-micronized prodrug 11 (D50=4.4 um; D90=13.0 um) were used for this study.
The data are shown in graphic form in FIG. 12.

[2] = male, beagle, dog, in vivo, 20 mg/kg
Procedure: as §1, §2, §3, §4, §5, §6, §7, §8
The aqueous suspension formulations were derived from 0.5% CMC-Na and 0.5% Tween 80. […] Micronized ETV (D50=2.4 um; D90=5.0 um) and prodrug 29 (D50=1.8 um; D90=4.0 um) and non-micronized prodrug 11 (D50=4.4 um; D90=13.0 um) were used for this study.

[3] = Single dose rat PK, intramuscular (Example 39); assay type: in vivo, Male SD rats
Procedure: as §1, §2, §3, §4, §5, §6, §7
Data Analysis. Plasma concentration versus time data was analyzed by non-compartmental approaches using the Phoenix WinNonlin 6.3 software program. Cmax, Tmax, T1/2, AUC(0-1), AUC(0-int), MRT(0-1), MRT(0-int), % F and graphs of plasma concentration versus time profile were reported.
Bis-DHA prodrug 9 (31 mg/kg equivalent dose of ETV) and ETV (20 mg/kg) were subjected to single dose rat PK studies via intramuscular route of administration. Non-micronized prodrug and ETV were used. […] Enhanced half-life and mean residence life were also observed for prodrug 9 making it suitable as a long-acting agent.
The data are shown in graphic form in FIG. 18.

## C=C1[C@H](COC(=O)Cc2ccccc2)[C@@H](OC(=O)Cc2ccccc2)C[C@@H]1n1cnc2c(=O)[nH]c(N)nc21 [Prodrug 11, ((1R,3S,5S)-3-(2-amino-6-oxo-1H-purin-9(6H)-yl)-2-methylene-5-(2-phenylacetoxy)cyclopentyl)methyl 2-phenylacetate]
[1]; single IM dose
  d.n. AUC0-last: 1286 ng·h/mL/mg/kg
  d.n. Cmax: 2.2 ng/mL/mg/kg
[1]; single SC dose
  d.n. AUC0-last: 874 ng·h/mL/mg/kg
  d.n. Cmax: 1.8 ng/mL/mg/kg

## C=C1[C@H](CO)[C@@H](O)C[C@@H]1n1cnc2c(=O)[nH]c(N)nc21 [ETV, Entecavir]
[2]
  Clast: 0.2 ng/mL
  day of Clast: 41 days
[2]; im
  AUC0-inf: 25294 ± 2044 ng·h/mL
  AUC0-last: 25134 ± 1970 ng·h/mL
  Cmax: 2390 ± 219 ng/mL
  MRT0-inf: 30.8 ± 4.8 h
  T1/2: 438 ± 263 h
  Tmax: 2.3 ± 1.2 h
[3]; in vivo, im
  d.n. Cmax: 91.65 ng/mL/mg/kg
[3]; male, SD, in vivo
  Clast: 1.4 ng/mL
  day of Clast: 5 days

## C=C1[C@H](CO)[C@@H](OC(=O)Cc2ccccc2)C[C@@H]1n1cnc2c(=O)[nH]c(N)nc21 [Prodrug 36]
[1]; single SC dose
  d.n. AUC0-last: 1586 ng·h/mL/mg/kg
  d.n. Cmax: 8.2 ng/mL/mg/kg

## C=C1[C@H](COC(=O)CC/C=C\C/C=C\C/C=C\C/C=C\C/C=C\C/C=C\CC)[C@@H](OC(=O)CC/C=C\C/C=C\C/C=C\C/C=C\C/C=C\C/C=C\CC)C[C@@H]1n1cnc2c(=O)[nH]c(N)nc21 [Prodrug 9, (4Z,7Z,10Z,13Z,16Z,19Z)-(1S,2R,4S)-4-(2-amino-6-oxo-1H-purin-9(6H)-yl)-2-(((4Z,7Z,10Z,13Z,16Z,19Z)-docosa-4,7,10,13,16,19-hexaenoyloxy)methyl)-3-methylenecyclopentyl docosa-4,7,10,13,16,19-hexaenoate]
[3]; single IM dose, compared with ETV
  half-life and mean residence life: Enhanced
[3]; single IM dose, dose-normalized
  d.n. Cmax: 0.37 ng/mL/mg/kg
